Measurements taken from ChEMBL document CHEMBL1149035, “Verongamine, a novel bromotyrosine-derived histamine H3-antagonist from the marine sponge Verongula gigantea” (J Nat Prod, 1994).
Active and inactive are the calls of the source. The calls are words filed in the database; no cut-off is given here.

Tests used:
[1] = target: Histamine H3 receptor (Cavia porcellus) (UniProt Q9JI35); assay: Antagonist activity at guinea pig histamine H3 receptor assessed as blockade of (R)-alpha-methyl histamine-induced inhibition of EFS-stimulated guinea pig ileum contraction at 1 ug/mL; assay type: functional, tissue-based
Sequence of Histamine H3 receptor (Cavia porcellus) (Q9JI35 whole entry): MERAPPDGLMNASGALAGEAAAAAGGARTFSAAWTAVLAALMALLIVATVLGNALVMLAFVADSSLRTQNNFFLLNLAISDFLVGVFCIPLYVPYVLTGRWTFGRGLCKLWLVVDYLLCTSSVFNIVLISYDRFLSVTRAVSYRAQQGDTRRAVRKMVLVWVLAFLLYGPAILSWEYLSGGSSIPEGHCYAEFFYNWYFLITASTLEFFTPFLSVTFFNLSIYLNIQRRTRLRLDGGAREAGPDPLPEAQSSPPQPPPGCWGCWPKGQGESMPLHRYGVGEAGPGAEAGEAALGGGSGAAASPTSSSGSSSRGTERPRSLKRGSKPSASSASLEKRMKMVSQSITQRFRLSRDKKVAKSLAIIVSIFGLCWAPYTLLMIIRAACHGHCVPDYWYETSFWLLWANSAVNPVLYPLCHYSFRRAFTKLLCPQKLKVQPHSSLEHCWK

Histamine H3 receptor = Histamine H3 receptor (Cavia porcellus, UniProt Q9JI35); assay: Binding affinity to histamine H3 receptor in guinea pig brain membrane; assay type: cell membranes
Sequence of Histamine H3 receptor (Q9JI35 whole entry): as above

[2] = target: Histamine H3 receptor (Cavia porcellus) (UniProt Q9JI35); assay: Antagonist activity at guinea pig histamine H3 receptor assessed as blockade of clonidine-induced inhibition of EFS-stimulated guinea pig ileum contraction at 1 ug/mL; assay type: functional, tissue-based

Activity [1] | IC50 (Histamine H3 receptor) | Activity [2] | Compound
inactive | – | – | COC1=C(Br)C(O)C2(C=C1Br)CC(C(=O)NCCc1c[nH]cn1)=NO2 (centres undefined)
Active | 500 nM | inactive | COc1ccc(C/C(=N\O)C(=O)NCCc2c[nH]cn2)cc1Br [VERONGAMINE]
